The values that follow come from ChEMBL document CHEMBL1201862, “PubChem BioAssay data set” (2004).

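96-well plates; 48 h exposure; 5 concentrations. Endpoints by linear interpolation between flanking doses. Not reached: highest tested concentration assigned. Here, GI50 denotes the concentration required for 50% inhibition of growth.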 Calls of active or inactive are those of the source. Cut-off read from the data, not from the text of the source: active = GI50 up to about 1.1 µM and inactive = higher.

Test systems include 786-0; A549; CCRF-CEM; HCT-116; KM12; LOX IMVI; LXFL 529; M14; NCI-H226; NCI-H460; OVCAR-8; SK-MEL-28; SN12C; SNB-19; SNB-75; UO-31.
Common to all, as to test: NCI anticancer screen, dose series, 48 h

As for `O=C(/C=C1\Nc2ccccc2C(=O)N1c1ccccc1Cl)c1ccccc1`, the GI50 was > 100 µM (inactive) in the assay with 786-0; 87.5 µM (inactive) in the assay on A549; > 100 µM (inactive) in the assay with CCRF-CEM; 36.5 µM (inactive) in the assay with HCT-116; 84.1 µM (inactive) with KM12; > 100 µM (inactive) with LOX IMVI. The GI50 with LXFL 529, in the assay with M14, in the assay with NCI-H226, with NCI-H460, in the assay on OVCAR-8 and in the assay on SK-MEL-28 was > 100 µM (inactive) each time. Further, the GI50 with SN12C was > 100 µM (inactive); in the assay with SNB-19, > 100 µM (inactive); in the assay with SNB-75 it was 32.7 µM (inactive); in the assay with UO-31 it was > 100 µM (inactive).
`CCNc1nc2c(=O)n(C)c(=O)n(C)c2s1`: the GI50 with 786-0, in the assay on A549, with CCRF-CEM, with HCT-116, in the assay on KM12 and in the assay on LOX IMVI was > 100 µM (inactive) in each case. Moreover, the GI50 in the assay on LXFL 529, in the assay with M14, in the assay on NCI-H226, in the assay with NCI-H460, in the assay with OVCAR-8 and in the assay on SK-MEL-28 was > 100 µM (inactive) throughout. The GI50 with SN12C, in the assay on SNB-19, with SNB-75 and with UO-31 was > 100 µM (inactive) throughout.
Regarding `O=C(/C=C/c1ccc(OCCCOc2ccc(/C=C/C(=O)c3ccc(Cl)cc3)cc2)cc1)c1ccc(Cl)cc1`, the GI50 in the assay with 786-0, in the assay on A549, in the assay with CCRF-CEM, in the assay on HCT-116, in the assay on KM12 and with LOX IMVI was > 100 µM (inactive) throughout. For the same molecule, the GI50 with LXFL 529, in the assay with M14, in the assay with NCI-H226, in the assay with NCI-H460, in the assay on OVCAR-8 and with SK-MEL-28 was > 100 µM (inactive) each time. The GI50 is > 100 µM (inactive) in the assay with SN12C, > 100 µM (inactive) in the assay with SNB-19 and 34.6 µM (inactive) in the assay with SNB-75.
Take `CC1=CC(=O)N(c2c(C)cccc2Cl)C(C)N1` (stereo unspecified): the GI50 in the assay with 786-0, in the assay on A549, in the assay on CCRF-CEM, with HCT-116, in the assay with KM12 and in the assay on LOX IMVI was > 100 µM (inactive) in each case. Besides, the GI50 in the assay on LXFL 529, in the assay with M14, with NCI-H226, with NCI-H460, in the assay with OVCAR-8 and in the assay with SK-MEL-28 was > 100 µM (inactive) in each case. Also, the GI50 in the assay on SN12C, in the assay with SNB-19, with SNB-75 and with UO-31 was > 100 µM (inactive) throughout.
On to `C=C1C=CC2(Br)OC3CC(C)(Cl)C(Br)CC13C2(C)C` (stereo unspecified), for which the GI50 was 33.8 µM (inactive) with 786-0; 26.4 µM (inactive) in the assay on A549; 25.1 µM (inactive) with CCRF-CEM; 15 µM (inactive) in the assay with HCT-116; 24.4 µM (inactive) with KM12; 18.9 µM (inactive) in the assay with LOX IMVI. In addition, the GI50 in the assay on LXFL 529 was 22.5 µM (inactive); in the assay with M14 it was 21.2 µM (inactive); in the assay with NCI-H226, 19.1 µM (inactive); in the assay on NCI-H460 it was 22 µM (inactive); in the assay on OVCAR-8 it was 30.7 µM (inactive); in the assay with SK-MEL-28, 20 µM (inactive). Also, the GI50 in the assay with SN12C was 18.9 µM (inactive); with SNB-19 it was 27 µM (inactive); in the assay with SNB-75, 25.2 µM (inactive); with UO-31, 20.7 µM (inactive).
Consider `COc1cccc(NC(=O)C(C)(C)C)c1C=O`, for which the GI50 in the assay on 786-0 is > 100 µM (inactive); in the assay with A549, 71.1 µM (inactive); in the assay on CCRF-CEM, 32.1 µM (inactive); with HCT-116, 35.6 µM (inactive); in the assay with KM12, 42.3 µM (inactive); in the assay on LOX IMVI, 46.1 µM (inactive). For the same molecule, the GI50 is 33.7 µM (inactive) in the assay with LXFL 529; 70.8 µM (inactive) in the assay on M14; 33.4 µM (inactive) with NCI-H226; > 100 µM (inactive) with NCI-H460; 57.9 µM (inactive) with OVCAR-8; > 100 µM (inactive) in the assay on SK-MEL-28. Besides, the GI50 with SN12C was 63.1 µM (inactive); with SNB-19, 51.2 µM (inactive); with SNB-75 it was 39.3 µM (inactive); in the assay with UO-31, 34.3 µM (inactive).
With `O=C(Nc1cc(Cl)c(Cl)cc1Cl)C(=O)C1C(=O)NC(=S)NC1=O`, the GI50 in the assay with 786-0, in the assay on A549, in the assay with CCRF-CEM, with HCT-116, in the assay on KM12 and in the assay on LOX IMVI was > 100 µM (inactive) each time. Moreover, the GI50 in the assay with LXFL 529, with M14, in the assay with NCI-H226, with NCI-H460, in the assay with OVCAR-8 and in the assay with SK-MEL-28 was > 100 µM (inactive) each time. The GI50 with SN12C, in the assay with SNB-19, in the assay on SNB-75 and with UO-31 was > 100 µM (inactive) each time.
Turning to `O=[N+]([O-])c1cc(C(F)(F)F)cc([N+](=O)[O-])c1CCl`, the GI50 in the assay with 786-0 was 3.14 µM (inactive); in the assay on A549 it was 9.53 µM (inactive); with CCRF-CEM it was 0.0993 µM (active); in the assay with HCT-116, 0.897 µM (active); in the assay with KM12, 2.23 µM (inactive); in the assay on LOX IMVI, 0.0826 µM (active). Moreover, the GI50 is 0.228 µM (active) in the assay with LXFL 529; 0.53 µM (active) in the assay on M14; 1.57 µM (inactive) in the assay with NCI-H226; 5.78 µM (inactive) in the assay on NCI-H460; 2.14 µM (inactive) with OVCAR-8; 4.84 µM (inactive) in the assay on SK-MEL-28. The GI50 was 1.55 µM (inactive) in the assay on SN12C, 7.35 µM (inactive) in the assay with SNB-19, 4.5 µM (inactive) in the assay on SNB-75 and 7.87 µM (inactive) in the assay with UO-31.
With `O=C(CC1(O)C(=O)Nc2ccc([N+](=O)[O-])cc21)c1ccc(Br)cc1` (stereo unspecified), the GI50 is 61 µM (inactive) in the assay with 786-0; > 100 µM (inactive) with A549; 47.4 µM (inactive) in the assay on CCRF-CEM; 37.2 µM (inactive) with HCT-116; 42.9 µM (inactive) with KM12; 60.4 µM (inactive) in the assay with LOX IMVI. For the same molecule, the GI50 with LXFL 529 was 47.1 µM (inactive); with M14, > 100 µM (inactive); with NCI-H226, 85.1 µM (inactive); with NCI-H460, > 100 µM (inactive); with OVCAR-8 it was 39.8 µM (inactive); in the assay with SK-MEL-28, > 100 µM (inactive). Also, the GI50 with SN12C was > 100 µM (inactive); in the assay with SNB-19, 44.3 µM (inactive); in the assay with SNB-75 it was 23.3 µM (inactive); in the assay on UO-31 it was 45.1 µM (inactive).
In the case of `COC(OC)C(C)CC(=O)N(C)C` (stereo unspecified), the GI50 in the assay with 786-0, with A549, with CCRF-CEM, in the assay on HCT-116, in the assay on KM12 and in the assay with LOX IMVI was > 100 µM (inactive) throughout. The GI50 with LXFL 529, with M14, in the assay with NCI-H226, in the assay on NCI-H460, in the assay on OVCAR-8 and in the assay with SK-MEL-28 was > 100 µM (inactive) in each case. Moreover, the GI50 in the assay with SN12C, in the assay with SNB-19, with SNB-75 and with UO-31 was > 100 µM (inactive) each time.
Turning to `CCOC(=O)C1C=C2O[C@@H]3OC4(CCCCC4)O[C@@H]3C2C2C(=O)CCC(=O)[C@@]12C(=O)OC` (stereo partly specified), the GI50 in the assay with 786-0, in the assay with A549, in the assay with CCRF-CEM, in the assay on HCT-116, in the assay on KM12 and in the assay with LOX IMVI was > 100 µM (inactive) throughout. Also, the GI50 in the assay on LXFL 529, in the assay with M14, in the assay with NCI-H226, in the assay with NCI-H460, with OVCAR-8 and in the assay on SK-MEL-28 was > 100 µM (inactive) throughout. Moreover, the GI50 with SN12C, in the assay with SNB-19, in the assay with SNB-75 and in the assay on UO-31 was > 100 µM (inactive) each time.
Regarding `COc1cc2c(c(OC)c1OC)-c1ccc(SC)c(=O)cc1[C@@H](NCc1ccccc1[N+](=O)[O-])CC2`, the GI50 with 786-0 is 0.0246 µM (active); in the assay on A549, 0.00929 µM (active); in the assay on CCRF-CEM, 0.00532 µM (active); in the assay with HCT-116, 0.00644 µM (active); in the assay on KM12 it was 0.00406 µM (active); in the assay on LOX IMVI, 0.00834 µM (active). For the same molecule, the GI50 is 0.0128 µM (active) in the assay with LXFL 529; 0.00546 µM (active) in the assay with M14; 0.0234 µM (active) in the assay with NCI-H226; 0.0168 µM (active) with NCI-H460; 0.0184 µM (active) with OVCAR-8; 0.00444 µM (active) with SK-MEL-28. The GI50 is 0.0209 µM (active) in the assay on SN12C, 0.0246 µM (active) in the assay with SNB-19, 0.00225 µM (active) with SNB-75 and 0.01 µM (active) in the assay on UO-31.
